Test results from PubChem BioAssay AID1918947 (Molecular Pharmacology Branch, DTP, NCI, 2023).

System: A498 complex spheroid viability
Experiment: Anticancer human tumor A498 cell line growth inhibition;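 also: spheroids exposed to agents for seven days before readout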;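 as to viability, T/C: 100% = DMSO vehicle-treated spheroids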
Conditions: for IC50: curve of first compound; for viability, T/C: stronger effect = lower value
How it was run: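 Drug combinations with the LSD1 inhibitor iadademstat tested on tumor cells co-cultured as spheroids with endothelial cells and mesenchymal stem cells. Concentrations descended in half-log increments from clinical Cmax or 10 microM.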

[1] = second compound 0.1 µM, first compound 0.0316 µM
[2] = second compound 0.1 µM, first compound 0.1 µM
[3] = second compound 0.1 µM, first compound 0.316 µM
[4] = second compound 0.1 µM, first compound 1 µM
[5] = second compound 0.316 µM, first compound 0.0316 µM
[6] = second compound 0.316 µM, first compound 0.1 µM
[7] = second compound 0.316 µM, first compound 0.316 µM
[8] = second compound 0.316 µM, first compound 1 µM
[9] = second compound 1 µM, first compound 0.0316 µM
[10] = second compound 1 µM, first compound 0.1 µM
[11] = second compound 1 µM, first compound 0.316 µM
[12] = second compound 1 µM, first compound 1 µM
[13] = second compound 3.16 µM, first compound 0.0316 µM
[14] = second compound 3.16 µM, first compound 0.1 µM
[15] = second compound 3.16 µM, first compound 0.316 µM
[16] = second compound 3.16 µM, first compound 1 µM
[17] = second compound 10 µM, first compound 0.0316 µM
[18] = second compound 10 µM, first compound 0.1 µM
[19] = second compound 10 µM, first compound 0.316 µM
[20] = second compound 10 µM, first compound 1 µM

Nc1ccn(C2OC(CO)C(O)C2(F)F)c(=O)n1 (stereo not given) + NC1CCC(NC2CC2c2ccccc2)CC1
IC50 (second compound 0.1 µM): < 0.949 nM | IC50 (second compound 0.316 µM): < 0.949 nM | IC50 (second compound 1 µM): < 0.949 nM | IC50 (second compound 3.16 µM): < 0.949 nM | IC50 (second compound 10 µM): < 0.949 nM | viability, T/C (second compound 0.1 µM, first compound 0.000949 µM): 25.7% | viability, T/C (second compound 0.1 µM, first compound 0.003 µM): 32.9% | viability, T/C (second compound 0.1 µM, first compound 0.00949 µM): 41.2% | viability, T/C (second compound 0.1 µM, first compound 0.03 µM): 38% | viability, T/C (second compound 0.1 µM, first compound 0.0949 µM): 36.8% | viability, T/C (second compound 0.1 µM, first compound 0.3 µM): 29.9% | viability, T/C (second compound 0.316 µM, first compound 0.000949 µM): 24.3% | viability, T/C (second compound 0.316 µM, first compound 0.003 µM): 33.9% | viability, T/C (second compound 0.316 µM, first compound 0.00949 µM): 44.2% | viability, T/C (second compound 0.316 µM, first compound 0.03 µM): 43.3% | viability, T/C (second compound 0.316 µM, first compound 0.0949 µM): 36.8% | viability, T/C (second compound 0.316 µM, first compound 0.3 µM): 31.1% | viability, T/C (second compound 1 µM, first compound 0.000949 µM): 21.7% | viability, T/C (second compound 1 µM, first compound 0.003 µM): 32.8% | viability, T/C (second compound 1 µM, first compound 0.00949 µM): 43.2% | viability, T/C (second compound 1 µM, first compound 0.03 µM): 40.8% | viability, T/C (second compound 1 µM, first compound 0.0949 µM): 29.9% | viability, T/C (second compound 1 µM, first compound 0.3 µM): 29.3% | viability, T/C (second compound 3.16 µM, first compound 0.000949 µM): 23.8% | viability, T/C (second compound 3.16 µM, first compound 0.003 µM): 30.5% | viability, T/C (second compound 3.16 µM, first compound 0.00949 µM): 38.2% | viability, T/C (second compound 3.16 µM, first compound 0.03 µM): 38.2% | viability, T/C (second compound 3.16 µM, first compound 0.0949 µM): 30.8% | viability, T/C (second compound 3.16 µM, first compound 0.3 µM): 30.3% | viability, T/C (second compound 10 µM, first compound 0.000949 µM): 22.3% | viability, T/C (second compound 10 µM, first compound 0.003 µM): 26.7% | viability, T/C (second compound 10 µM, first compound 0.00949 µM): 39.8% | viability, T/C (second compound 10 µM, first compound 0.03 µM): 38.5% | viability, T/C (second compound 10 µM, first compound 0.0949 µM): 27.9% | viability, T/C (second compound 10 µM, first compound 0.3 µM): 25.5%

CC(C)c1c(-c2ccccc2)nc2c(C#N)c[nH]n2c1=O + NC1CCC(NC2CC2c2ccccc2)CC1
IC50 (second compound 0.1 µM): > 10000 nM | IC50 (second compound 0.316 µM): > 10000 nM | IC50 (second compound 1 µM): > 10000 nM | IC50 (second compound 3.16 µM): > 10000 nM | IC50 (second compound 10 µM): > 10000 nM | viability, T/C [1]: 88.3% | viability, T/C [2]: 87.8% | viability, T/C [3]: 89.3% | viability, T/C [4]: 87.3% | viability, T/C (second compound 0.1 µM, first compound 3.16 µM): 91.3% | viability, T/C (second compound 0.1 µM, first compound 10 µM): 86.5% | viability, T/C [5]: 84% | viability, T/C [6]: 85.8% | viability, T/C [7]: 87% | viability, T/C [8]: 87.8% | viability, T/C (second compound 0.316 µM, first compound 3.16 µM): 82.7% | viability, T/C (second compound 0.316 µM, first compound 10 µM): 85% | viability, T/C [9]: 88.8% | viability, T/C [10]: 86.4% | viability, T/C [11]: 89.2% | viability, T/C [12]: 88.2% | viability, T/C (second compound 1 µM, first compound 3.16 µM): 86% | viability, T/C (second compound 1 µM, first compound 10 µM): 86.9% | viability, T/C [13]: 84% | viability, T/C [14]: 79.9% | viability, T/C [15]: 82.3% | viability, T/C [16]: 87.6% | viability, T/C (second compound 3.16 µM, first compound 3.16 µM): 83.8% | viability, T/C (second compound 3.16 µM, first compound 10 µM): 82.4% | viability, T/C [17]: 64% | viability, T/C [18]: 69.3% | viability, T/C [19]: 66.3% | viability, T/C [20]: 69.6% | viability, T/C (second compound 10 µM, first compound 3.16 µM): 66.4% | viability, T/C (second compound 10 µM, first compound 10 µM): 69.5%

COc1cc(Nc2ncc3c(n2)-c2ccc(Cl)cc2C(c2c(F)cccc2OC)=NC3)ccc1C(=O)O + NC1CC1c1ccc(-c2cccc(O)c2)cc1
IC50 (second compound 0.1 µM): 185 nM | IC50 (second compound 0.316 µM): 282 nM | IC50 (second compound 1 µM): 80.6 nM | IC50 (second compound 3.16 µM): 34.6 nM | IC50 (second compound 10 µM): 65.4 nM | viability, T/C (second compound 0.1 µM, first compound 0.00316 µM): 76.7% | viability, T/C (second compound 0.1 µM, first compound 0.01 µM): 65.5% | viability, T/C [1]: 58.5% | viability, T/C [2]: 54% | viability, T/C [3]: 49.4% | viability, T/C [4]: 41% | viability, T/C (second compound 0.316 µM, first compound 0.00316 µM): 85.2% | viability, T/C (second compound 0.316 µM, first compound 0.01 µM): 72.3% | viability, T/C [5]: 66.9% | viability, T/C [6]: 56% | viability, T/C [7]: 52.1% | viability, T/C [8]: 39.9% | viability, T/C (second compound 1 µM, first compound 0.00316 µM): 78.7% | viability, T/C (second compound 1 µM, first compound 0.01 µM): 60.7% | viability, T/C [9]: 58% | viability, T/C [10]: 48.2% | viability, T/C [11]: 44.8% | viability, T/C [12]: 34.6% | viability, T/C (second compound 3.16 µM, first compound 0.00316 µM): 71.1% | viability, T/C (second compound 3.16 µM, first compound 0.01 µM): 53.8% | viability, T/C [13]: 52.6% | viability, T/C [14]: 46.4% | viability, T/C [15]: 42.2% | viability, T/C [16]: 36.9% | viability, T/C (second compound 10 µM, first compound 0.00316 µM): 76.6% | viability, T/C (second compound 10 µM, first compound 0.01 µM): 59.3% | viability, T/C [17]: 54.1% | viability, T/C [18]: 50.8% | viability, T/C [19]: 40.1% | viability, T/C [20]: 31.6%
